The target of the test is T1, Estrogen Receptor (Homo sapiens, UniProt P03372).
T1 sequence (P03372 1-595): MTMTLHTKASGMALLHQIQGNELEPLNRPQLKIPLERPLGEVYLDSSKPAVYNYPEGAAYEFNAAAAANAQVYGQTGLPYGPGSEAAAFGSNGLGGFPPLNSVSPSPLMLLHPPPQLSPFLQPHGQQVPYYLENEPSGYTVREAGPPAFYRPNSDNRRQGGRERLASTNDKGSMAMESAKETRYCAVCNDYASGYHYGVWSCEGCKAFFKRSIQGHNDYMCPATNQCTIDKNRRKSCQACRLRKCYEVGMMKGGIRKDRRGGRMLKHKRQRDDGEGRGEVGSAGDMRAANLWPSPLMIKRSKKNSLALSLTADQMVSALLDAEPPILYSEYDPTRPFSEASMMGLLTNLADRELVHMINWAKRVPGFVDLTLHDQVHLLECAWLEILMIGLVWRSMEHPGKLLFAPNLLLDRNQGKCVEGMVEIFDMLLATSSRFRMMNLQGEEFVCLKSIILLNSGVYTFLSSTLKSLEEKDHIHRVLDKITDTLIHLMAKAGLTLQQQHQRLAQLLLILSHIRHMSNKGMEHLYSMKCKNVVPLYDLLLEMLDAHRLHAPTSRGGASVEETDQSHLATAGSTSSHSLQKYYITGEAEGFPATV
Kind of test: Tendency to link to estrogen receptor (IC50 of bisphenols and reference compounds, Table 1). As to conditions: concentration required to substitute 50% of genuine hormone linked to receptor. It counts as binding.

Structures are written as SMILES.

Consider `CCCCCCCCCc1ccc(O)cc1` [4-Nonylphenol], for which the IC50 – broadly, the concentration that inhibits the measured activity by half – was 3.9 µM. In other words, the single-digit micromolar range.

These data come from patent US6469127B1, “Polycarbonate resin having low tendency of releasing environmental endocrine disruptors” (Space Environmental Technology Company, Inc,, priority 1999, dated 2002).
